Here are results for 16 compounds from publication PMC5796027, “Thiopurine Drugs Repositioned as Tyrosinase Inhibitors” (International Journal of Molecular Sciences, 2017).

Structures are written as SMILES. “Also recorded” adds a separate entry of the source.

The target of data set [1] is T1, mushroom tyrosinase (Agaricus bisporus, UniProt C7FF04). Put plainly: Mushroom tyrosinase enzyme inhibition assay (dopachrome absorbance at 475 nm). The class given is biochemical. The settings on record: for inhibition of mushroom tyrosinase (in words): enzyme assay with 0.01% Triton X-100; for LE, ligand efficiency: −1.37 × (Log10Ki)/HA, HA = number of heavy atoms. How it is done: (§1) Enzyme activity and kinetics experiments with inhibitors—All of the reagents used in this study were purchased from ChemBridge (San Diego, CA, USA), Sigma-Aldrich (St. Louis, MO, USA), or Tokyo Chemical Industry (Tokyo, Japan). The reaction solution for the enzyme assay was prepared with 200 nM mushroom tyrosinase and inhibitors in phosphate-buffered saline (PBS), containing 5% dimethyl sulphoxide and 0.01% (w/v) Triton X-100. After incubating the mixture at 30 °C for 10 min, 500 μM L-tyrosine was added as the substrate. […] The IC50 was evaluated by analysing different concentrations of each inhibitor. The inhibitory constants (Ki) were converted from the IC50 values using the Km obtained from kinetics experiments and substrate concentration based on the Cheng–Prusoff equation [60]. A series of substrates at concentrations of 0.25, 0.33, 0.4, 0.5, 0.67, and 1 mM were used to obtain the respective velocities (V) for enzyme inhibitory kinetics. The concentrations of each inhibitor were varied and comprised the range that included the IC50 value. Four models (competitive, uncompetitive, non-competitive, and mixed) that were derived from the Michaelis-Menten equation were used to fit the kinetic parameters, maximum velocity (Vmax), Michaelis constant (Km), and the dissociation constants between the substrate-free enzyme and inhibitor (Kic) and the substrate-bound enzyme and inhibitor (Kiu). The data from all the concentrations of the substrate and inhibitor were simultaneously fitted nonlinearly by minimising the χ^2 value, defined as the sum of the squared deviations between experimental and fitted values for each model. The appropriate model was selected based on the F-test with χ^2 values from the four models, coupled with the extraction of the related parameters. All of the fittings and statistical analyses in this study were computed by using MATLAB® (MathWorks, Natick, MA, USA).
Target sequence in this assay (C7FF04 1-392): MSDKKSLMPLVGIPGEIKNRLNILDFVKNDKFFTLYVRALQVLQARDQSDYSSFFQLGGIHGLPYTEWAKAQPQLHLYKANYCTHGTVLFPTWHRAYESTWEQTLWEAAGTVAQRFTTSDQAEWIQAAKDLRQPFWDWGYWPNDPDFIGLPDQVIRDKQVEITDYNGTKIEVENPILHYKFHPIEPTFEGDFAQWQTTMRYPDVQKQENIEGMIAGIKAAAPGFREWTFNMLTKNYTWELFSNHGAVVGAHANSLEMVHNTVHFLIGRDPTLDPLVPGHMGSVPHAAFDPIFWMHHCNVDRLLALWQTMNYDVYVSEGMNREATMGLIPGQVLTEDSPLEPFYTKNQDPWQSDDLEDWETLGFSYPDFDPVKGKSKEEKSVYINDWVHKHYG

On the set-up of data set [2]: method as in PMID 22587354, PMID 18551414, PMID 15667143. The settings on record: extracted from the ZINC database ref 33,34,35; cited from earlier work.
Data set [3] deals with T1, mushroom tyrosinase. Put plainly: Enzyme inhibitory kinetics with nonlinear fitting of Michaelis-Menten models. The class given is biochemical. The settings on record: for Mechanism of inhibition: model chosen by χ2 and F-test among competitive, uncompetitive, non-competitive, mixed; for Ki: nonlinear data fitting, competitive model, read-out: kinetically fitted Ki. How it is done: as §1
Target sequence in this assay (C7FF04 1-392): as above

Data set [4] has as its target T1, mushroom tyrosinase. Put plainly: Differential scanning fluorimetry (DSF). It is filed as binding. The settings on record: 0.5 μM protein, 200 μM inhibitor, control without inhibitor 51.8 °C. How it is done:
DSF—The stability of mushroom tyrosinase in the presence and absence of inhibitors was assessed using DSF using a […] (RT-PCR) CFX96 system (BioRad, Hercules, CA, USA). […] The Tm value, which is the mid-point melting temperature, was calculated from a nonlinear fit of the temperature-dependent fluorescent intensity I(T), expressed as the Boltzmann equation: I(T)=LL+UL−LL/1+exp(Tm−T/a), where UL and LL are related to the baseline and top of the curves, respectively, and a is the steepness of the slope. Only data in the range of 35–65 °C were used for the fitting.
Target sequence in this assay (C7FF04 1-392 limits assumed): as the sequence (C7FF04 1-392) above

Another data set deals with T2, mammalian tyrosinase (Mus musculus, UniProt P11344).
T2 construct: we performed an enzymatic assay with melanoma B16F10 cell lysates; endogenous in cells; host or cells: B16F10 murine melanoma cells (Korean Cell Line Bank), Triton X-100 lysate, dialysed supernatant
T2 sequence (P11344 19-533): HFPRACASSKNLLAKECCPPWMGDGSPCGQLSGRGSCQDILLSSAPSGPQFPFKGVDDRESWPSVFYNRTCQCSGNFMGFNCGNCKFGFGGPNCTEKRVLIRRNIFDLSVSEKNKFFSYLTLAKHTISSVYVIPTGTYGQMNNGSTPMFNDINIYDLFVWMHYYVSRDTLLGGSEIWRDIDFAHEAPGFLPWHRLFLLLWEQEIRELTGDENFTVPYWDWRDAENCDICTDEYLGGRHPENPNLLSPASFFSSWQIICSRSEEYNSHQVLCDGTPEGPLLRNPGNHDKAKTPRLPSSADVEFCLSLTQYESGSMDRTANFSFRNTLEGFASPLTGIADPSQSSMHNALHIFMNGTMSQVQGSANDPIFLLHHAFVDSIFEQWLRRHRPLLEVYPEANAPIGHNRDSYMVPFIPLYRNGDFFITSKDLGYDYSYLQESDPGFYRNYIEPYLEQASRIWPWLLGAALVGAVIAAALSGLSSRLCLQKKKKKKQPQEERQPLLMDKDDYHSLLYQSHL
Put plainly: Tyrosinase inhibition in B16F10 cell lysates (L-DOPA substrate). The class given is biochemical, murine. The note with it: 10, 20, 50 μM inhibitor, 500 μM L-DOPA.

For data set [5], the system named is B16F10 murine melanoma cells. Put plainly: Melanin content assay in B16F10 cells. The class given is cell-based. The note with it: 10, 20 and 50 μM tested, 48 h.
Description: (§2) Cell-based activity assays with inhibitors—The melanin content and MTT conversion were measured in B16F10 murine melanoma cells that were purchased from the Korean Cell Line Bank (Seoul, Korea). When the density of B16F10 cells reached 1 × 10^5 cells, the test inhibitors (10, 20, and 50 μM) and 3-isobutyl-1-methylxanthine (IBMX, 100 μM) were added, and the cells were incubated for 48 h. The amount of melanin released into the extracellular area was quantified by measuring the absorbance at 405 nm, and was subsequently expressed as a percentage relative to the untreated control. The change in the reduction of the MTT dye into formazan in the cell was quantitatively interpreted as the cellular toxicity induced by the inhibitor. The inhibition of tyrosinase was also estimated using the B16F10 cell lysates, as described previously [28]. In brief, the cells were lysed in PBS supplemented with 1% (w/v) Triton X-100, centrifuged at 14,000 g for 30 min, and then the supernatants were dialysed to remove Triton X-100. After adding 500 μM L-DOPA and the inhibitors (10, 20, and 50 μM) to the prepared lysates, the change in absorbance over time at 475 nm was measured. The decrease in absorbance was calculated relative to the absorbance of the untreated controls.
In another data set the target is tyrosinase. The note with it: cited from earlier work; for reported inhibition of tyrosinase through direct binding: literature survey ref 36,37.
The next data set has as its system melanin contents. Further details: method as in PMID 23123645, PMID 23411395, PMID 22901670. The settings on record: higher concentrations (>100 μM) ref 44,45,46; cited from earlier work.
In the next data set the test system is human hepatocytes. The settings on record: up to several tens of μM ref 43; cited from earlier work.

Description for mammalian tyrosinase: as §2

`Nc1nc2nc[nH]c2c(=O)[nH]1` [Guanine, guanine]: at mushroom tyrosinase [1], the Ki (as a rule, a measure of affinity in units of concentration, obtained from inhibition or displacement) was above 1000 µM and the “inhibition of mushroom tyrosinase (in words)” value is given as “only thioinosine inhibited tyrosinase”. Besides, in data set [2], the LogP (as a rule, a log measure of how a compound divides between an organic and an aqueous phase) was −0.77.
`OC[C@H]1O[C@@H](n2cnc3c(S)ncnc32)[C@H](O)[C@@H]1O` [Thioinosine, thioinosine]: the values for the Ki at mushroom tyrosinase [1] (read-out: Ki) and at mushroom tyrosinase [3] were 8 µM and 14 µM, respectively. Further, on mushroom tyrosinase [1], the “LE, ligand efficiency” value was found to be 0.34. Besides, the Mechanism of inhibition result at mushroom tyrosinase [3] is listed as “Competitive”; at mushroom tyrosinase [3] (listed as thioinosine), “competitive inhibitors”. In addition, the entries for the “Tm of tyrosinase in complex with inhibitor” value (from here on “Tm … with inhibitor”) on mushroom tyrosinase [4] and on mushroom tyrosinase [4] (listed as thioinosine) were 51.0 ± 0.2 °C and 51.0 °C, respectively. The “inhibition of tyrosinase in B16F10 cell lysates (in words)” value (from here on “inhibition of tyrosinase … (in words)”) at mammalian tyrosinase was “inhibited melanin syntheses in a concentration-dependent manner”. For the same compound, the “reduction of melanin content (in words)” value in data set [5] was “markedly reduced the melanin content at 20 and 50 μM”. The lipophilicity (LogP) in [2] is recorded as −0.90.
Regarding `O=C(O)c1cccnc1Nc1cccc(C(F)(F)F)c1` [nifumic acid], on mushroom tyrosinase [1], the “inhibition of mushroom tyrosinase (in words)” value is “only thioguanine exerted inhibitory action”.
Turning to `O=Cc1ccc(O[C@@H]2O[C@H](CO)[C@@H](O)[C@@H](O)[C@H]2O)cc1` [ZINC5234422, 4-(β-D-allopyranosyloxy)benzaldehyde], the IC50 at tyrosinase (BindingDB entry ref 48, read-out: half-maximal inhibitory concentration (IC50)) was 94 µM.
On to `CCCN(CCC)S(=O)(=O)c1ccc(C(=O)O)cc1` [probenecid], for which the “inhibition of mushroom tyrosinase (in words)” value against mushroom tyrosinase [1] is recorded as “only thioguanine exerted inhibitory action”.
As for `Nc1nc2nc[nH]c2c(=S)[nH]1` [Thioguanine, thioguanine], the “inhibition of mushroom tyrosinase (in words)” value against mushroom tyrosinase [1] is reported as “only thioguanine exerted inhibitory action”. Further, the Ki at mushroom tyrosinase [1] (read-out: Ki) was 52 µM; on mushroom tyrosinase [3], 40 µM. The Mechanism of inhibition result is “Competitive” at mushroom tyrosinase [3] and “competitive inhibitors” at mushroom tyrosinase [3] (listed as thioguanine). Also, the “Tm … with inhibitor” value amounted to 49.8 ± 0.2 °C on mushroom tyrosinase [4] and 49.8 °C on mushroom tyrosinase [4] (listed as thioguanine). Moreover, the “inhibition of tyrosinase … (in words)” value against mammalian tyrosinase is given as “inhibited melanin syntheses in a concentration-dependent manner”. In addition, the “reduction of melanin content (in words)” value in data set [5] is “markedly reduced the melanin content at 20 and 50 μM”. Further, in data set [2], the lipophilicity (LogP) was 0.60.
Regarding `Nc1ccc(C(=O)NCC(=O)O)cc1` [aminohippuric acid], the “reported inhibition of tyrosinase through direct binding” value in the data set with tyrosinase is “has been reported”.
In the case of `O=c1cc(CO)occ1O` [Kojic acid, kojic acid], the “reduction of melanin content (in words)” value in data set [5] is “marginal”. Moreover, in data set [2], the LogP is −0.16. Also, in the data set on melanin contents, the “decrease of melanin contents” value was “meaningful decreases”.
Turning to `Nn1c(S)nnc1-c1ccncc1` [ZINC509439, 4-amino-5-(4-pyridyl)-4H-1,2,4-triazole-3-thiol], the Ki on tyrosinase (BindingDB entry ref 48, read-out: reported Ki) was 1 µM.
As to `N[C@@H](CSCC(=O)O)C(=O)O` [S-carboxymethyl-L-cysteine], the “inhibition of mushroom tyrosinase (in words)” value against mushroom tyrosinase [1] is on record as “only thioguanine exerted inhibitory action”.
In the case of `Sc1ncnc2nc[nH]c12` [Mercaptopurine, mercaptopurine], the Ki on mushroom tyrosinase [1] (read-out: Ki) turned out to be 16 µM; at mushroom tyrosinase [3] it was 29 µM. In addition, the “LE, ligand efficiency” value on mushroom tyrosinase [1] amounted to 0.61. For the same compound, the Mechanism of inhibition entry is “Competitive” on mushroom tyrosinase [3] and “competitive inhibitors” at mushroom tyrosinase [3] (listed as mercaptopurine). The “Tm … with inhibitor” value on mushroom tyrosinase [4] was determined as 49.0 ± 0.2 °C; at mushroom tyrosinase [4] (listed as mercaptopurine), 49.0 °C. Further, the “inhibition of tyrosinase … (in words)” value at mammalian tyrosinase is on record as “highest inhibition”; against mammalian tyrosinase (listed as mercaptopurine), “inhibited melanin syntheses in a concentration-dependent manner”. In addition, in data set [5], the “reduction of melanin content (in words)” value is “less effective”. Besides, in data set [2], the LogP is listed as 1.00. The “cytotoxicity in human hepatocytes” value in the data set with human hepatocytes is listed as “less cytotoxic up to several tens of μM”.
Regarding `Cn1cnc([N+](=O)[O-])c1Sc1ncnc2nc[nH]c12` [Azathioprine, azathioprine], at mushroom tyrosinase [1], the Ki was above 1000 µM and the “inhibition of mushroom tyrosinase (in words)” value is “but not azathioprine, exerted an inhibitory activity; also recorded: poor inhibitor”. Besides, the LogP in data set [2] is 1.15.
Take `COc1ccc(/C=C/C(=O)Nc2ccccc2C(=O)O)cc1OC` [tranilast]: the “inhibition of mushroom tyrosinase (in words)” value against mushroom tyrosinase [1] is listed as “only thioguanine exerted inhibitory action”.
Same read-out and setting: the value for `NC(CC(=O)O)C(=O)O` (racemic) [D,L-aspartic acid] was “only thioguanine exerted inhibitory action”.
As for `O=C(O)c1cc(-c2ccc(F)cc2F)ccc1O` [diflunisal], in the data set with tyrosinase, the “reported inhibition of tyrosinase through direct binding” value was “has been reported”.
With `O=c1[nH]cnc2nc[nH]c12` [Hypoxanthine, hypoxanthine], on mushroom tyrosinase [1], the Ki is above 1000 µM and the “inhibition of mushroom tyrosinase (in words)” value was “only thioinosine inhibited tyrosinase”. Further, the LogP in data set [2] is given as −0.35.
